This is an account of results in US20090148391A1, “[…] ACTIVE PREPARATIONS COMPRISING […] DERIVATIVES AND FURTHER SKIN AND/OR HAIR LIGHTENING AND/OR SENILE KERATOSIS REDUCING COMPOUNDS” (SYMRISE GmbH & Co. KG, priority 2006, published 2009).

One experiment concerns fungal-tyrosinase. In words: Tyrosinase-Assay: oxidation of L-DOPA to dopachrome with or without test substance, photometric detection at 475 nm. Type of experiment: biochemical. Conditions: weight ratio of the mixture; 50 u/ml fungal-tyrosinase, pH 6.8, 37° C., L-DOPA 0.1 mg/ml.
Another experiment relates to 3T3 firbrosarcoma cells. The conditions noted are these: cited from earlier work.
Experiment [1] relates to B16V mouse melanoma cells. Conditions: cited from earlier work.

Method for fungal-tyrosinase: The principle of the assay is to oxidise L-DOPA to dopachrome with or without the test substance under physiological conditions in a controlled reaction. Dopachrome and dopaquinone is detected via photometric detection methods. Commercially available fungal-tyrosinase is used for testing the enzyme activity and the correlating inhibition of melanin production.
The enzymatic reaction was conducted with or without a potential inhibitor of the tyrosinase of constituents (a) and (b), such as styrylresorcinol of formula 3 (more than 99% purity) of constituent (a) alone, specific compounds of the constituent b) selected from the group consisting of (i) chelating agents, (ii) phenolic derivatives, plant extracts with an amount of phenolic derivatives and (iii) organic acid derivatives alone, as well as mixtures thereof.
The concentrations of the inhibitor or a mixture thereof range from 0.1 to 1000 μg/ml. The enzyme activity was adjusted to 50 u/ml fungal-tyrosinase in 66.7 mM phosphate buffer (pH=6.8). The reaction mixture was incubated for 10 minutes in a 96-well microtiter plate in a horizontal agitator at 37° C. Then L-DOPA (end concentration: 0.1 mg/ml). The enzymatic conversion to dopachrome is related to the inhibition activity of the single test substances or the mixture thereof, which is shown in a brown discolouration, which can be detected at 475 nm. […]

Take `O=c1cc(CO)occ1O` [Kojic acid, 5-hydroxy-2-hydroxymethyl-4-pyranone]: in the experiment on fungal-tyrosinase, the “Ratio 4-(1-phenylthyl)-1,3-dihydroxybenzene CARN 85-27-8:(i) Chelating Agent showing synergistic enhanced lightening activity in the tyrosinase assay” value amounted to 1.3.

Turning to `CC(c1ccccc1)c1ccc(O)cc1O` (stereo not drawn) [styrylresorcinol of the formula 3, 4-(1-phenylethyl)-1,3-dihydroxybenzene], the tyrosinase-inhibiting activity result (in the experiment with 3T3 firbrosarcoma cells; in experiment [1]) was “clearly demonstrated” each time.
